Experimental data reported in patent US20080026996A1, “Selective Vpac2 Receptor Reptide Agonists” (ELI LILLY AND COMPANY, priority 2004, published 2008).
pEC50, pIC50: −log10 of the molar value. Like-named read-outs stand apart in the source and are kept apart here. Where no end group is shown, it is not given here. [ ]: non-standard residue; d: D form. The star is where a group is joined. hArg = N=C(N)NCCCC[C@H](N)C(=O)O; Hexanoyl = CCCCCC(=O)*; Aib = CC(C)(N)C(=O)O

Assays:
Normal Wistar rats = assay: Intravenous glucose tolerance test (IVGTT); format: in vivo, rat; settings: IVGTT, insulin
Protocol: Intravenous glucose tolerance test (IVGTT): Normal Wistar rats are fasted overnight and are anesthetized prior to the experiment. A blood sampling catheter is inserted into the rats. The compound is given in the jugular vein. Blood samples are taken from the carotid artery. A blood sample is drawn immediately prior to the injection of glucose along with the compound. After the initial blood sample, glucose mixed with compound is injected intravenously (i.v.). A glucose challenge of 0.5 g/kg body weight is given, injecting a total of 1.5 mL vehicle with glucose and agonist per kg body weight. The peptide concentration vary to produce the desired dose in μg/kg. Blood samples are drawn at 2, 4, 6 and 10 minutes after giving glucose. The control group of animals receives the same vehicle along with glucose, but with no compound added. In some instances, a 30 minute post-glucose blood sample is drawn. Aprotinin is added to the blood sample (250 kIU/ml blood). The serum is then analyzed for glucose and insulin using standard methodologies.
The assay uses a formulated and calibrated peptide stock in PBS. Normally, this stock is a prediluted 100 μM stock. However, a more concentrated stock with approximately 1 mg agonist per mL is used. The specific concentration is always known. Variability in the maximal response is mostly due to variability in the vehicle dose.

human VPAC2 [1] = biological target: T1, human VPAC2 (Homo sapiens, UniProt P41587); assay: DiscoveRx cAMP in vitro potency, CHO-S cell line stably expressing human VPAC2 receptor; format: cell-based; settings: cAMP generation; mean of two independent runs
T1 construct: expressed in transfected cells
T1 sequence (P41587 24-438): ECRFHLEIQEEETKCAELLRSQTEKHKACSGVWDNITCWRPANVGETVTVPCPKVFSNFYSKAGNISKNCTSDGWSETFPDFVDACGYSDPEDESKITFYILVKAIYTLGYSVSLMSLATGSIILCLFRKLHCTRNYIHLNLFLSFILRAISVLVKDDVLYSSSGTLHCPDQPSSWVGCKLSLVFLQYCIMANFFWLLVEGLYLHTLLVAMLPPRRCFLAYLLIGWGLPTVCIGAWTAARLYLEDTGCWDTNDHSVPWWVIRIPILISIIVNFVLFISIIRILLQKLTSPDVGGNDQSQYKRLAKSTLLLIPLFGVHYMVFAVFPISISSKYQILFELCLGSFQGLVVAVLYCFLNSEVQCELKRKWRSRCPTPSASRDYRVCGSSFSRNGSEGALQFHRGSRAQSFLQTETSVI
Protocol: (§1) Also, the cells are washed twice. The cells are incubated in assay buffer plus IBMX for 15 minutes at room temperature. […] The stimuli are present for 30 minutes. Then, the assay buffer is gently removed. […] At day 3, the assay described above for the VPAC2 receptor cell line is performed.

human VPAC1 [2] = biological target: T2, human VPAC1 (Homo sapiens, UniProt P32241); assay: Filter binding assay, membranes of cells transiently transfected with human VPAC1, 125I-labeled VIP tracer (Table 2); set-up: expressed in transfected cells; settings: read-out: Human VPAC1 Receptor Binding
T2 sequence (P32241 31-457): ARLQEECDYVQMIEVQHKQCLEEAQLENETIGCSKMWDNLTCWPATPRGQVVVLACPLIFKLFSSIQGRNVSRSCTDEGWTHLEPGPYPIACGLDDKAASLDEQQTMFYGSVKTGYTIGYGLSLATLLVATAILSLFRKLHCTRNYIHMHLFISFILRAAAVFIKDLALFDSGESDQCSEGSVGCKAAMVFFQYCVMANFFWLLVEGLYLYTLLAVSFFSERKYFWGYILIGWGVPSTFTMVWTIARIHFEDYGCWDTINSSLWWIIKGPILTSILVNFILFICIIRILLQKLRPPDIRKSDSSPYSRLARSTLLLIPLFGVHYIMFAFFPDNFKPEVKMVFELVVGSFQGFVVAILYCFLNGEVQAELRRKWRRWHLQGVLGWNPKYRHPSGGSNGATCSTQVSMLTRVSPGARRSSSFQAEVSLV
Outline: (§2)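 Radioligand displacement was measured with 2.5 μg membrane protein per well and roughly 40000 cpm of iodinated tracer. After a 1-hour incubation, bound and free label were separated on BSA-blocked glass-fibre filters and quantified by scintillation.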

human VPAC1 [3] = biological target: T2, human VPAC1; assay: DiscoveRx cAMP in vitro potency, CHO-PO cells transiently transfected with human VPAC1 receptor; format: cell-based; set-up: expressed in transfected cells; host or cells: CHO-PO, transient (Lipofectamine)
Protocol: as §1

human VPAC2 [4] = biological target: T1, human VPAC2; assay: Filter binding assay, membranes of stable VPAC2 cell line, 125I-labeled VIP tracer (Table 2); settings: read-out: Human VPAC2 Receptor Binding
Outline: as §2

human VPAC2 [5] = biological target: T1, human VPAC2; assay: Alpha screen cAMP in vitro potency, human VPAC2 receptor; format: cell-based; settings: cAMP generation; single result from two analyses performed in a single run; read-out: Human VPAC2 Receptor: Alpha Screen EC50
Outline: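 Dissociated cells, 50,000 per point in stimulation buffer, were incubated with stimuli and AlphaScreen acceptor beads for 60 min.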

[6] = Rat serum stability studies (remaining active peptide by DiscoveRx cAMP on CHO-VPAC2 cells); format: in vitro ADME
Outline: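 EC50 from a DiscoveRx cAMP read-out on CHO-VPAC2 cells indexes how much peptide stays active after 18 h in rat serum at 37° C without aprotinin, against an aprotinin-protected 4° C aliquot.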

rat VPAC1 receptor = biological target: T3, rat VPAC1 receptor (Rattus norvegicus, UniProt P30083); assay: DiscoveRx in vitro potency, CHO-PO cells transiently transfected with rat VPAC 1 receptor DNA; format: cell-based; set-up: expressed in transfected cells; host or cells: CHO-PO, transient
T3 sequence (P30083 31-459): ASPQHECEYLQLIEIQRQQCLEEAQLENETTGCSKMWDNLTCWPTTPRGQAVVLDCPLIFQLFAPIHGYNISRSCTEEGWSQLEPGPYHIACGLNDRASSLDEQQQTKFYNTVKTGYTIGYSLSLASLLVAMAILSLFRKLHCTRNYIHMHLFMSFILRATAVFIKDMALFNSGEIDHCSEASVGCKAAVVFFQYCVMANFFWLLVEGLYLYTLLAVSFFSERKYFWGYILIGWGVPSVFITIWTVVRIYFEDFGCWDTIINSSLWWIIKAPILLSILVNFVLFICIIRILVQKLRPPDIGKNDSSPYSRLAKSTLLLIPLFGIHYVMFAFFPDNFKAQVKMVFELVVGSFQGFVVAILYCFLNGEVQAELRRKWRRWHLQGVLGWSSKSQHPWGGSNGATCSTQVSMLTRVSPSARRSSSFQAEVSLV
Protocol: (§3) Also, the cells are washed twice. […] The stimuli are present for 30 minutes. Then, the assay buffer is gently removed.

human PAC1 [7] = biological target: T4, human PAC1 (Homo sapiens, UniProt P41586); assay: Filter binding assay, membranes of cells transiently transfected with human PAC1, 125I-labeled PACAP-27 tracer (Table 2); set-up: expressed in transfected cells; settings: read-out: Human PAC1 Receptor Binding
T4 sequence (P41586 21-468): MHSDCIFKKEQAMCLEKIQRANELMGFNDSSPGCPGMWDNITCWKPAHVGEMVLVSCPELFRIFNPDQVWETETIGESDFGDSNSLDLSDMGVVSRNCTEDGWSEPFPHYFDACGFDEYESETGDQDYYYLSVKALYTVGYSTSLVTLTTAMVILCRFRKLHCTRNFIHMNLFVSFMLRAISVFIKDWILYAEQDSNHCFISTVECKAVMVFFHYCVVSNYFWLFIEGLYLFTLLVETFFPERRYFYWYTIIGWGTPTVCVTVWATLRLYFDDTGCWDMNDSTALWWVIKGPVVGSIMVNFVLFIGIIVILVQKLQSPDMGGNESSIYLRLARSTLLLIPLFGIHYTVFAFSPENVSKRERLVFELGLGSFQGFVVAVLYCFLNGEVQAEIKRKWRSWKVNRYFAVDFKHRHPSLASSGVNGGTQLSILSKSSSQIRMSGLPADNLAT
Outline: as §2

rat VPAC2 receptor = biological target: T5, rat VPAC2 receptor (Rattus norvegicus, UniProt P35000); assay: DiscoveRx in vitro potency, CHO-PO cells transiently transfected with rat VPAC 2 receptor DNA; format: cell-based; set-up: expressed in transfected cells; host or cells: CHO-PO, transient
T5 sequence (P35000 23-437): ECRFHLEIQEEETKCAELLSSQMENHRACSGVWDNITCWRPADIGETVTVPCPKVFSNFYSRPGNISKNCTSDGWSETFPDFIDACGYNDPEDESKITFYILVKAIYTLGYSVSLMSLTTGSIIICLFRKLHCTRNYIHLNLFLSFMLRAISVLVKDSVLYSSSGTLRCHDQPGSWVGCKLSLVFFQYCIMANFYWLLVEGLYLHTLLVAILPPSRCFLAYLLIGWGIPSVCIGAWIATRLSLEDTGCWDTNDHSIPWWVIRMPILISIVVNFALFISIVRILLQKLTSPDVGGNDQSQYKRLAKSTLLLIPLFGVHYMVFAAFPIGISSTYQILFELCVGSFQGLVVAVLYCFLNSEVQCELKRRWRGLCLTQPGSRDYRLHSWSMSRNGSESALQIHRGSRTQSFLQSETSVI
Protocol: as §3

human PAC1 [8] = biological target: T4, human PAC1; assay: DiscoveRx cAMP in vitro potency, CHO-PO cells transiently transfected with human PAC1 receptor; format: cell-based; set-up: expressed in transfected cells; host or cells: CHO-PO, transient (Lipofectamine)
Protocol: as §1

[9] = cAMP generation, mean of two independent runs, read-out: Human VPAC1 Receptor: DiscoveRx EC50
[10] = cAMP generation, mean of two independent runs, read-out: Human PAC1 Receptor: DiscoveRx EC50

Row | Substance | pEC50 (human VPAC2 [1]) | pIC50 (human VPAC1 [2]) | pEC50 (human VPAC1 [3]; [9]) | pIC50 (human VPAC2 [4]) | further results
1 | HVDAVFTDNYTRLRKQVAAKKYLQSIKNKRYGGPSSGAPPPS [Agonist P44] | 9.04 | – | – | – | % increase AUC: Dose = 0.1 μg/kg (Normal Wistar rats; 0.1 μg/kg): 19%; % increase AUC: Dose = 10 μg/kg (Normal Wistar rats; 10 μg/kg): 194%
2 | HSDAVFTDNYTRLRKQVAAKKYLQSIKNKRF [Agonist P34] | – | 7.10 | 9.10 | 9.04 | –
3 | Hexanoyl-HSEAVFTENYTRLR[Aib]QVAA[Aib]KYLQSIKNKRYGGPSSGAPPPS [Agonist P314] | – | < 5.52 | – | 9.24 | pEC50 (human VPAC2 [5]): 9.66; Rat Serum Stability (estimated purity in % after 18 hours) [6]: 8.44%; pEC50 (rat VPAC1 receptor): 7.53; pIC50 (human PAC1 [7]): < 4.60
4 | H-HSDAVFTDNYTRLRKQVAAKKYLQSI[hArg]NKRYGGPSSGAPPPS [Agonist P22] | – | 6.91 | 9.05 | 9.06 | –
5 | Hexanoyl-HSDAVFTDNYTRLLAKVAAKKYLQSIKNKRYGGPSSGAPPPS [Agonist P135] | – | 6.60 | – | 9.37 | pEC50 (rat VPAC2 receptor): 10.30; pEC50 (human VPAC2 [5]): 9.74; pEC50 (rat VPAC1 receptor): 10.70; pIC50 (human PAC1 [7]): 6.13
6 | H-HSDAVTTDNYTRLRKQVAAKKYLQSIKNKRYGGPSSGAPPPS [Agonist P65] | < 6.00 | – | < 6.00 | – | pEC50 (human PAC1 [8]; [10]): 9.15
7 | HSDAVITDNYTRLRKQVAAKKYLQSIKNKRYGGPSSGAPPPS [Agonist P63] | < 6.00 | – | < 6.00 | – | –
8 | H-HSDLVFTDNYTRLRKQVAAKKYLQSIKNKRYGGPSSGAPPPS [Agonist P55] | – | – | 6.87 | – | pEC50 (human PAC1 [8]; [10]): < 6.00
9 | HSDAVLTDNYTRLRKQVAAKKYLQSIKNKRYGGPSSGAPPPS [Agonist P64] | < 6.00 | – | 6.66 | – | –
10 | HSDVVFTDNYTRLRKQVAAKKYLQSIKNKRYGGPSSGAPPPS [Agonist P53] | – | – | – | – | pEC50 (human VPAC1 [3]): 6.93; pEC50 (human PAC1 [8]): < 6.00
11 | H-HSDAVFTDNYTRFRKQVAAKKYLQSIKNKRYGGPSSGAPPPS [Agonist P26] | – | – | 9.05 | – | –
12 | Hexanoyl-HSDAVFTDNYTRL[Aib]KQVAAK[Aib]YLQSIKNKRYGGPSSGAPPPS [Agonist P244] | – | < 5.52 | – | 7.57 | Rat Serum Stability (Estimated purity in % after 72 hours) [6]: 6.2%; Rat Serum Stability (estimated purity in % after 18 hours) [6]: 30.64%; pEC50 (rat VPAC1 receptor): 6.89; pIC50 (human PAC1 [7]): < 4.60
13 | HSDAVFTDNYTRLRKQVAAKKYLQSIKNKIYGGPSSGAPPPS [Agonist P76] | – | – | 9.10 | – | –
14 | HSDAVFTDNYTRLRKQVAAKKYLQSIRNKRYGGPSSGAPPPS [Agonist P23] | 8.85 | 6.82 | 9.05 | 9.04 | –
15 | HSDAVVTDNYTRLRKQVAAKKYLQSIKNKRYGGPSSGAPPPS [Agonist P66] | < 6.00 | – | > 6.00 | – | –
